Measured values reported in patent US20070082068A1, “Il-8 production promoters and use thereof” (priority 2003, published 2007).

How the values were obtained:
[1] = test system: IL-8 production by Caco-2 cells; experiment: Effect of promoting IL-8 production by Caco-2 cells (sandwich ELISA of culture supernatants); assay type: cell-based, human; settings: compounds at final concentration 100 μg/ml; 6-hour culture, then 12 hours in additive-free media; differentiated Caco-2 cells; significant difference P<0.01
Description: Caco-2 cells (human colon cancer-derived cell line; American Type Culture Collection, Rockville, Md., U.S.A.) were used as small-intestinal epithelial cell models to evaluate the influence of peppermint, dokudami (houttuynia herb), and licorice extracts on IL-8 production by the cells.
(§1) The Caco-2 cells were subcultured in 24-well plates. The resulting cells were cultured at 37° C. for 14 days under 5% CO2 conditions and thereby differentiated into small-intestinal epithelioid cells. Culture media used were DMEM media (SIGMA Corp.) containing 10% fetal calf serum, 1% non essential amino acid solution, 2% glutamine, 100 U/ml penicillin, and 100 μg/ml streptomycin. A peppermint extract obtained in Example 1, a dokudami (houttuynia herb) extract obtained in Example 2, and a licorice extract obtained in Example 3 were added at each final concentration of 100 μg/ml to the media, and the cells were cultured therein. After 6-hour culture, the media were replaced with additive-free media, followed by additional culture for 12 hours. The resulting culture supernatants were subjected to sandwich ELISA assay (Eckmann, L., et al., Gastroenterology, 105, 1689-1697, 1993) to quantify the amount of IL-8 in the culture supernatants.
Caco-2 cells (human colon cancer-derived cell line; American Type Culture Collection, Rockville, Md., U.S.A.) were used as small-intestinal epithelial cell models to evaluate the influence of α-humulene, α-pinene, β-pinene and L-menthol on IL-8 production by the cells.
as §1, with “5% Co2” for “5% CO2”, “streptomycin. α-humulene (SIGMA Corp.), α-pinene (SIGMA Corp.), β-pinene (SIGMA Corp.),” for “streptomycin. A peppermint extract obtained in Example 1, a dokudami (houttuynia herb) extract obtained in Example 2,”, “and L-menthol (SIGMA Corp.)” for “and a licorice extract obtained in Example 3”, “media was” for “media were”, “assay” for “assay (Eckmann, L., et al., Gastroenterology, 105, 1689-1697, 1993)”

Caco-2 cells = experiment: Evaluation of cytotoxicity by LDH (lactate dehydrogenase) assay; assay type: cell-based; settings: 100 μg/ml; 24 hours; differentiated Caco-2 cells
Description: The cytotoxicity of peppermint, dokudami (houttuynia herb), licorice extracts was evaluated with Caco-2 cells. The Caco-2 cells differentiated into small-intestinal epithelioid cells in the same way as in Example 4 were cultured for 24 hours in media containing the peppermint, dokudami (houttuynia herb), and licorice extracts at each final concentration of 100 μg/ml. Subsequently, the media were removed, and the resulting cells were washed twice with PBS (phosphate buffered saline) (−) (Nissui Co., Ltd.). The cells were further supplemented with 700 μl of PBS (−) and left undisturbed at 37° C. for 2 hours. […] In summary, this assay is a method for quantifying cytotoxicity based on the activity of LDH released from dead cells by colormetrically determining formazan converted from a tetrazolium salt serving as a coloring reagent. The rate of free LDH (%) was calculated according to the equation below by using the LDH concentration in the collected PBS (−) as the amount of free LDH and the LDH concentration in the cell lysate as the amount of intracellular LDH. […]
The cytotoxicity of α-humulene was evaluated with Caco-2 cells. […] The rate of free LDH (6) was calculated according to the equation below by using the LDH concentration in the collected PBS (—) as the amount of free LDH and the LDH concentration in the cell lysate as the amount of intracellular LDH. […]

IL-8 production by the Caco-2 cells (relative IL-8 concentration to a control, FIG. 2) [1]	Structure (SMILES)	Cytotoxicity (rate of free LDH vs control, FIG. 4) (Caco-2 cells)
remarkably promoted IL-8 production	CC(C)[C@@H]1CC[C@@H](C)C[C@H]1O [L-menthol]	–
remarkably promoted IL-8 production	CC1=CC[C@H]2C[C@@H]1C2(C)C [α-pinene]	–
remarkably promoted IL-8 production	C=C1CC[C@@H]2C[C@H]1C2(C)C [β-pinene]	–

Structure (SMILES)	IL-8 production by the Caco-2 cells (relative IL-8 concentration to a control, FIG. 2) [1]	Cytotoxicity (rate of free LDH vs control, FIG. 4) (Caco-2 cells)
C/C1=C\CC/C(C)=C/CC(C)(C)/C=C/C1 [α-humulene]	remarkably promoted IL-8 production	no cytotoxicity
